Results published in patent US20250136606A1, “MODULATORS OF TRPML, THEIR COMPOSITIONS AND METHODS OF USE” (Caraway Therapeutics, Inc., priority 2021, published 2025).

Tests used:
Format in all cases: cell-based
Conditions in all cases: fluorescent calcium assay
TRPML2 = target: T1, TRPML2 (Homo sapiens, UniProt Q8IZK6); experiment: Fluorescent TRPML2 assay (performed as for TRPML1, substituting the TRPML2 subtype)
T1 construct: expressed in transfected cells
T1 sequence (Q8IZK6 1-566): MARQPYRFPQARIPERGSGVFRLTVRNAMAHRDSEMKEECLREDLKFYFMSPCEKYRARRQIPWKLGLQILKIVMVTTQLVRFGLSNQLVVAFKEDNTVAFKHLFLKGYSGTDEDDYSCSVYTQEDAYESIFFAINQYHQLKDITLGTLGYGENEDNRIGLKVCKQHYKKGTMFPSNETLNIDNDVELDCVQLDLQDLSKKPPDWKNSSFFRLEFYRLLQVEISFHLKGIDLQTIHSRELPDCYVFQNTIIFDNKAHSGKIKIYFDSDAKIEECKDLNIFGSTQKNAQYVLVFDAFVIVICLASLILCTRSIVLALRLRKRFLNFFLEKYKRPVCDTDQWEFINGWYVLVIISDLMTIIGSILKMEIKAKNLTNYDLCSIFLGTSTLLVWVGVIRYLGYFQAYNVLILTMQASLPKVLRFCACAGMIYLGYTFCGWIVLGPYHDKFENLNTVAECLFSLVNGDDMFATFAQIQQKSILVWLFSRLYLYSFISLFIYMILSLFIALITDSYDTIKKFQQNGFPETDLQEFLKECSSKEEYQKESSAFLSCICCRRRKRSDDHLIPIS
Summary of the method: (§1)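 Compound series (final 6 nM-20 μM, half-log, triplicate) were added to Fluo4-AM-loaded HEK-293 Trex cells in 10 mM calcium Ringer's, expressing the human TRPML subtype after doxycycline 0.5 ug/mL induction. Percent activity versus positive/negative controls from 480/540 nm fluorescence; EC50 by non-linear regression.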

TRPML3 = target: T2, TRPML3 (Homo sapiens, UniProt Q8TDD5); experiment: Fluorescent TRPML3 assay (performed as for TRPML1, substituting the TRPML3 subtype)
T2 construct: expressed in transfected cells
T2 sequence (Q8TDD5 1-553): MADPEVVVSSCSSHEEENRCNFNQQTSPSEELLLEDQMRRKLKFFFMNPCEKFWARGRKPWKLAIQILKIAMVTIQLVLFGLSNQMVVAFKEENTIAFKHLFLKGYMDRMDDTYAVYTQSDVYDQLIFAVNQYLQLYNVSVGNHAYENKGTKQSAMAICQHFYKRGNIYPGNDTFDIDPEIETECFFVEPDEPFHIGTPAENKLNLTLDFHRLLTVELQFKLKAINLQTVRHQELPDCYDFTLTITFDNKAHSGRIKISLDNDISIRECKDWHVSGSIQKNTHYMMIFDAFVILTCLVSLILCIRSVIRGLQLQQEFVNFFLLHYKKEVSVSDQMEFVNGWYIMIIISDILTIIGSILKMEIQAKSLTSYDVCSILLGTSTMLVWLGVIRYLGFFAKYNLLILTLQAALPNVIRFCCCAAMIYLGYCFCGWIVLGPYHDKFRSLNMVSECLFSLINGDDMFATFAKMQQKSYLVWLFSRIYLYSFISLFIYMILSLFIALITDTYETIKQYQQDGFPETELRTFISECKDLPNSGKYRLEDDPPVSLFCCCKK
Summary of the method: as §1

TRPML1 = TRPML1 (Homo sapiens, UniProt Q9GZU1); experiment: Fluorescent TRPML1 assay (Fluo4-AM calcium fluorescence in doxycycline-induced HEK-293 Trex cells)
Chain of TRPML1 (Q9GZU1 whole entry L15A/L16A/L577A/L578A, form open): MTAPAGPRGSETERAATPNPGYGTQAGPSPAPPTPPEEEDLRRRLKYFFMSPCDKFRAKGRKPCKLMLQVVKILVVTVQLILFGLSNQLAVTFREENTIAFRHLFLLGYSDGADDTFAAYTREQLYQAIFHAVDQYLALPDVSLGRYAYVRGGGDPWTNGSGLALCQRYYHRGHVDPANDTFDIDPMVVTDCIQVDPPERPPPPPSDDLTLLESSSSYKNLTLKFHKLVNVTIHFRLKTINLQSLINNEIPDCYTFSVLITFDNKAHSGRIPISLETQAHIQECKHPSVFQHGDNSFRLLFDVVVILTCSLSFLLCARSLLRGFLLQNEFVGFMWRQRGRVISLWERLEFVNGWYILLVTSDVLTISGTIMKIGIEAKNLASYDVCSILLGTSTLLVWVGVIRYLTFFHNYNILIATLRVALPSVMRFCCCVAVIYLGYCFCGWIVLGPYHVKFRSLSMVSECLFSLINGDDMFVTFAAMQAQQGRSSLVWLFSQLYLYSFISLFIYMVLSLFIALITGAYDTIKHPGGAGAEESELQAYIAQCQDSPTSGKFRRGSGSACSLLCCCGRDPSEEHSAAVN
Summary of the method: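 HEK-293 Trex cells stably carrying human TRPML1 (surface-trafficking mutant) were induced overnight with 0.5 ug/mL doxycycline, loaded with 1 micromolar Fluo4-AM, and suspended in Ringer's with 10 mM calcium. Compounds at 20 micromolar to 6 nanomolar final, half-log steps, triplicate; fluorescence 480/540 nm gave percent activity versus controls and EC50 by non-linear regression.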

Row | SMILES | EC50 (TRPML2) [nM] | EC50 (TRPML3) [nM] | EC50 (TRPML1) [nM]
1 | C[C@@H]1CN(c2ncnc3c2c(N2CCCC2)cn3-c2cccc(Cl)c2)CCN1C(=O)OC(C)(C)C [Compound 193, tert-butyl (R)-4-(7-(3-chlorophenyl)-5-(pyrrolidin-1-yl)-7H-pyrrolo[2,3-d]pyrimidin-4-yl)-2-methylpiperazine-1-carboxylate] | 100 to 500 | < 100 | < 100
2 | C[C@H]1CN(c2ncnc3c2c(N2CCCC2)cn3-c2cccc(Cl)c2)CCN1C(=O)OC(C)(C)C [Compound 194, tert-Butyl (S)-4-(7-(3-chlorophenyl)-5-(pyrrolidin-1-yl)-7H-pyrrolo[2,3-d]pyrimidin-4-yl)-2-methylpiperazine-1-carboxylate] | 100 to 500 | 100 to 500 | 100 to 500
3 | C[C@@H]1CN(C(=O)OC(C)(C)C)CCN1c1ncnc2c1c(C1CC1)cn2-c1cccc(OC(F)(F)F)c1 [Compound 195, tert-butyl (R)-4-(5-cyclopropyl-7-(3-(trifluoromethoxy)phenyl)-7H-pyrrolo[2,3-d]pyrimidin-4-yl)-3-methylpiperazine-1-carboxylate] | 100 to 500 | < 100 | 100 to 500
4 | C[C@H]1CN(C(=O)OC(C)(C)C)CCN1c1ncnc2c1c(C1CC1)cn2-c1cccc(OC(F)(F)F)c1 [Compound 196, tert-butyl (S)-4-(5-cyclopropyl-7-(3-(trifluoromethoxy)phenyl)-7H-pyrrolo[2,3-d]pyrimidin-4-yl)-3-methylpiperazine-1-carboxylate] | 100 to 500 | < 100 | < 100
5 | C[C@@H]1CN(C(=O)OC(C)(C)C)CCN1c1ncnc2c1c(C1CC1)cn2-c1cccc(OC(F)F)c1 [Compound 197, tert-butyl (R)-4-(5-cyclopropyl-7-(3-(difluoromethoxy)phenyl)-7H-pyrrolo[2,3-d]pyrimidin-4-yl)-3-methylpiperazine-1-carboxylate] | 100 to 500 | 100 to 500 | 100 to 500
6 | C[C@H]1CN(C(=O)OC(C)(C)C)CCN1c1ncnc2c1c(C1CC1)cn2-c1cccc(OC(F)F)c1 [Compound 198, tert-butyl (S)-4-(5-cyclopropyl-7-(3-(difluoromethoxy)phenyl)-7H-pyrrolo[2,3-d]pyrimidin-4-yl)-3-methylpiperazine-1-carboxylate] | 100 to 500 | < 100 | < 100
7 | C[C@@H]1CN(C(=O)OC(C)(C)C)CCN1c1ncnc2c1c(C1CC1)cn2-c1cccc(C#N)c1 [Compound 199, tert-butyl (R)-4-(7-(3-cyanophenyl)-5-cyclopropyl-7H-pyrrolo[2,3-d]pyrimidin-4-yl)-3-methylpiperazine-1-carboxylate] | 100 to 500 | 100 to 500 | 100 to 500
8 | C[C@H]1CN(C(=O)OC(C)(C)C)CCN1c1ncnc2c1c(C1CC1)cn2-c1cccc(C#N)c1 [Compound 200, tert-butyl (S)-4-(7-(3-cyanophenyl)-5-cyclopropyl-7H-pyrrolo[2,3-d]pyrimidin-4-yl)-3-methylpiperazine-1-carboxylate] | 100 to 500 | < 100 | < 100
9 | COc1cccc(-n2cc(C3CC3)c3c(N4CCN(C(=O)OC(C)(C)C)C[C@H]4C)ncnc32)c1 [Compound 201, tert-butyl (R)-4-(5-cyclopropyl-7-(3-methoxyphenyl)-7H-pyrrolo[2,3-d]pyrimidin-4-yl)-3-methylpiperazine-1-carboxylate] | 500 to 2000 | 100 to 500 | 100 to 500
10 | COc1cccc(-n2cc(C3CC3)c3c(N4CCN(C(=O)OC(C)(C)C)C[C@@H]4C)ncnc32)c1 [Compound 202, tert-butyl (S)-4-(5-cyclopropyl-7-(3-methoxyphenyl)-7H-pyrrolo[2,3-d]pyrimidin-4-yl)-3-methylpiperazine-1-carboxylate] | 500 to 2000 | 100 to 500 | 100 to 500

Other lines, results leading:

Row | EC50 (TRPML2) [nM] | EC50 (TRPML3) [nM] | EC50 (TRPML1) [nM] | SMILES
11 | 100 to 500 | < 100 | < 100 | C[C@H]1CN(C(=O)OC(C)(C)C)CCN1c1ncnc2c1c(C1CC1)cn2-c1cc(F)cc(F)c1 [Compound 203, tert-butyl (S)-4-(5-cyclopropyl-7-(3,5-difluorophenyl)-7H-pyrrolo[2,3-d]pyrimidin-4-yl)-3-methylpiperazine-1-carboxylate]
12 | 100 to 500 | < 100 | < 100 | C[C@@H]1CN(c2ncnc3c2c(C2CC2)cn3-c2cc(F)c(F)c(F)c2)CCN1C(=O)OC(C)(C)C [Compound 204, tert-butyl (R)-4-(5-cyclopropyl-7-(3,4,5-trifluorophenyl)-7H-pyrrolo[2,3-d]pyrimidin-4-yl)-2-methylpiperazine-1-carboxylate]
13 | 500 to 2000 | 100 to 500 | 100 to 500 | C[C@@H]1CN(c2ncnc3c2c(C2CC2)cn3-c2cccc(F)c2F)CCN1C(=O)OC(C)(C)C [Compound 205, tert-butyl (R)-4-(5-cyclopropyl-7-(2,3-difluorophenyl)-7H-pyrrolo[2,3-d]pyrimidin-4-yl)-2-methylpiperazine-1-carboxylate]
14 | 500 to 2000 | 100 to 500 | < 100 | C[C@@H]1CN(c2ncnc3c2c(C2CC2)cn3-c2cc(F)ccc2F)CCN1C(=O)OC(C)(C)C [Compound 206, tert-butyl (R)-4-(5-cyclopropyl-7-(2,5-difluorophenyl)-7H-pyrrolo[2,3-d]pyrimidin-4-yl)-2-methylpiperazine-1-carboxylate]
15 | 100 to 500 | < 100 | < 100 | C[C@@H]1CN(c2ncnc3c2c(C2CC2)cn3-c2cc(F)c(F)c(Cl)c2)CCN1C(=O)OC(C)(C)C [Compound 207, tert-butyl (R)-4-(7-(3-chloro-4,5-difluorophenyl)-5-cyclopropyl-7H-pyrrolo[2,3-d]pyrimidin-4-yl)-2-methylpiperazine-1-carboxylate]
16 | 100 to 500 | < 100 | < 100 | C[C@@H]1CN(c2ncnc3c2c(C2CC2)cn3-c2ccc(F)c(Cl)c2)CCN1C(=O)OC(C)(C)C [Compound 208, tert-butyl (R)-4-(7-(3-chloro-4-fluorophenyl)-5-cyclopropyl-7H-pyrrolo[2,3-d]pyrimidin-4-yl)-2-methylpiperazine-1-carboxylate]
17 | 100 to 500 | < 100 | < 100 | C[C@@H]1CN(C(=O)OC(C)(C)C)CCN1c1ncnc2c1c(N1CCCC1)cn2-c1cccc(Cl)c1 [Compound 209, tert-Butyl (R)-4-(7-(3-chlorophenyl)-5-(pyrrolidin-1-yl)-7H-pyrrolo[2,3-d]pyrimidin-4-yl)-3-methylpiperazine-1-carboxylate]
18 | < 100 | < 100 | < 100 | C[C@H]1CN(C(=O)OC(C)(C)C)CCN1c1ncnc2c1c(N1CCCC1)cn2-c1cccc(Cl)c1 [Compound 210, tert-Butyl (S)-4-(7-(3-chlorophenyl)-5-(pyrrolidin-1-yl)-7H-pyrrolo[2,3-d]pyrimidin-4-yl)-3-methylpiperazine-1-carboxylate]
19 | 500 to 2000 | < 100 | 100 to 500 | C[C@@H]1CN(C(=O)OC(C)(C)C)CCN1c1ncnc2c1c(C1CC1)cn2-c1cc(F)cc(F)c1 [Compound 211, tert-butyl (R)-4-(5-cyclopropyl-7-(3,5-difluorophenyl)-7H-pyrrolo[2,3-d]pyrimidin-4-yl)-3-methylpiperazine-1-carboxylate]
20 | 100 to 500 | < 100 | < 100 | C[C@H]1CN(C(=O)OC(C)(C)C)CCN1c1ncnc2c1c(-c1cccnc1)cn2-c1ccc(F)c(Cl)c1 [Compound 212, tert-butyl (S)-4-(7-(3-chloro-4-fluorophenyl)-5-(pyridin-3-yl)-7H-pyrrolo[2,3-d]pyrimidin-4-yl)-3-methylpiperazine-1-carboxylate]
